Experiments:
Format in all cases: in vivo, Sprague-Dawley rats
[1] = tested on: Angiotensin Receptor; test: Screening Potential Angiotensin Receptor Antagonists in Salt-Depleted Normotensive Rats (blood pressure after oral dosing); conditions: salt-depleted animals, typical response
Source text: Test Procedure for Screening Potenital Angiotensin Receptor Antagonists in Salt-Depleted Normotensive Rats
Purpose: This test is designed to detect hypotensive effects of a compound after oral dosing in normotensive animals made renin-dependent by salt depletion. [Wong, P. C., Price, W. A., Chiu, A. T., Duncia, J. V., Carini, D. J., Wexler, R. R., Johnson, A. L., and Timmermans, P. B. M. W. M.: Nonpeptide angiotensin II receptor antagonists. VIII. […] J. Pharmacol. Exp. Ther., 252,726 (1990)]
Solution Preparation: Oral 50 mg/kg furosemide doses are prepared from 10 mg/mL solutions of the intravenous pharmaceutical preparation (Lasix injection, Hoechst-Roussel Pharmaceutical). Test compound is uniformly suspended in 1% methylcellulose.
(§1) Method: Male 350-450 g Sprague-Dawley rats are implanted with teflon microcannulae via the middle caudal artery under 20 mg/kg intravenous brevital anesthesia and permitted a 4-7 day surgical recovery period. Throughout recovery and testing animals are individually housed unrestrained in standard rat metabolism cages and receive continuous 0.5 mL/hour intra-arterial 0.25 N saline infusion through a spring-shielded swivelling tether connected to an infusion/blood pressure recording system to maintain arterial cannula patency. Animals are maintained on Low Sodium (0.03%) Pruina Rat Chow #5881 throughout the study. After the recovery period animals are given oral 50 mg/kg furosemide (Lasix, Hoechst-Roussel Pharmaceutical) doses on two consecutive days to produce marked diuresis and plasma volume depletion that makes maintenance of normal blood pressure highly dependent on function of the renin-angiotensin-aldosteronesystem. Three hours after the second furosemide dose, rats are given test compound uniformly suspended in 1% methylcellulose (n=3/dose level) or 1 mL 1% methylcellulose vehicle (n=3) orally by gavage and blood pressure is continuously recorded for 24 h using a Buxco computerized data recording system. Compound-induced changes in blood pressure are compared to concurrent vehicle control blood pressures in order to detect drug effect.
Interpretation: Prior to salt depletion, normotensive rats typically show a plasma renin activity (PRA), measured by Radioimmuno Assay (RIA) of Angiotensin I (as ng Angiotensin I/mL plasma/hour) and yields a RIA of 0.7. After the salt-depletion protocol PRA values taken 3 hour after the furosemide dose have risen to about 7.4. […] PRA is increased by this DuP-753 treatment to about 41.4.
Compounds that decrease blood pressure 10 or more mmHg (MAP) compared to concurrent control after oral dosing are considered active in this test. Maximum possible response is about-35 mmHg. See results in Table 2.

[2] = tested on: plasma renin activity (PRA); test: Plasma renin activity by Radioimmuno Assay of Angiotensin I in salt-depleted rats; conditions: salt-depleted animals; about 7.4 after salt depletion before treatment
Experimental: as §1, with “After the recovery period animals are given oral 50 mg/kg furosemide (Lasix, Hoechst-Roussel Pharmaceutical) doses on two consecutive days to produce marked diuresis and plasma volume depletion that makes maintenance of normal blood pressure highly dependent on function of the renin-angiotensin-aldosteronesystem.” left out, “Compound-induced changes in blood pressure are compared to concurrent vehicle control blood pressures in order to detect drug effect.” left out
Interpretation: Prior to salt depletion, normotensive rats typically show a plasma renin activity (PRA), measured by Radioimmuno Assay (RIA) of Angiotensin I (as ng Angiotensin I/mL plasma/hour) and yields a RIA of 0.7. […]

[3] = tested on: Angiotensin Receptor; test: Screening Potential Angiotensin Receptor Antagonists in Salt-Depleted Normotensive Rats (blood pressure after oral dosing)

CCCCc1nc(Cl)c(CO)n1Cc1ccc(-c2ccccc2-c2nn[nH]n2)cc1 [DuP-753]
blood pressure decrease (mean arterial pressure, MAP) [1]: about 35 mmHg | plasma renin activity (PRA) after treatment [2]: about 41.4 ng Angiotensin I/mL plasma/hour | blood pressure response in normotensive rats that have not been salt-depleted [3]: does not change
